# Reference: patent US20240398752A1 (AJOU UNIVERSITY INDUSTRY-ACADEMIC COOPERATION FOUNDATION, priority 2021, published 2024)
# Tests used:
# [1] = Description: In the experiment, the concentration of tofacitinib was set at 5, 10, 20, 50, 100, 200, and 500 μM, 1 mg of microsomes and nicotinamide adenine dinucleotide phosphate hydrogen-generating system (Corning Inc., Corning, NY, USA) were blended, and the total volume was adjusted to 1 mL with 0.1 M potassium phosphate buffer (pH 7.4), followed by incubation for 15 minutes at a rate of 50 oscillations per minutes in a water-bath (37° C.). The concentration (Km) of tofacitinib when Vmax, the maximum rate of drug metabolism (Vmax), was halved was measured by the Lineweaver-Burk plot. The intrinsic clearance (CLint) of the drug was calculated by dividing Vmax by Km.
# in vivo = conditions: for clearance: CL; for CL renal: CLR; for half-life: Terminal half-life; for Vd: Vss; for Ae0-24 h: urine 24 hours; for reduction in AUC in the LC-ISN group compared to the LC group: isosakuranetin 15 mg/kg
# Description: Blood collection was performed at 0, 1, 5, 15, 30, 45, 60, 90, 120, 180, 240, 360, 480, 600, and 720 minutes for intravenous administration of tofacitinib, and at 0, 5, 15, 30, 45, 60, 90, 120, 180, 240, 360, 480, 600, and 720 minutes for oral administration to quantify concentrations of tofacitinib in the plasma. Then, urine was collected for 24 hours to analyze the concentration of tofacitinib excreted in urine as well.
# [2] = rat, in vivo, iv, 10 mg/kg, tofacitinib 10 mg/kg intravenous, CON rats
# [3] = rat, in vivo, iv, 10 mg/kg, tofacitinib 10 mg/kg intravenous, LC rats
# [4] = rat, in vivo, iv, 10 mg/kg, tofacitinib 10 mg/kg intravenous, LC-ISN rats
# [5] = rat, in vivo, po, 20 mg/kg, tofacitinib 20 mg/kg oral, CON rats
# [6] = rat, in vivo, po, 20 mg/kg, tofacitinib 20 mg/kg oral, LC-ISN 15 rats
# [7] = rat, in vivo, po, 20 mg/kg, tofacitinib 20 mg/kg oral, LC rats
# [8] = tofacitinib 10 mg/kg intravenous
# [9] = tofacitinib 10 mg/kg intravenous, CON rats
# [10] = tofacitinib 10 mg/kg intravenous, LC rats
# [11] = tofacitinib 10 mg/kg intravenous, LC-ISN rats
# [12] = tofacitinib 20 mg/kg oral, CON rats
# [13] = tofacitinib 20 mg/kg oral, LC rats
# [14] = tofacitinib 20 mg/kg oral, LC-ISN 15 rats
compound,measurement,setting,value
C[C@@H]1CCN(C(=O)CC#N)C[C@@H]1N(C)c1ncnc2[nH]ccc12 [tofacitinib],"Km in the three groups (CON, LC, LC-ISN)",[1]; hepatic microsome,No significant difference
same,decrease of Vmax in the LC group compared to the CON group,[1]; hepatic microsome,63.4%
same,increase of Vmax in the LC-ISN group compared to the LC group,[1]; hepatic microsome,204%
same,CLint of the LC-ISN group recovered to % of the CON group,[1]; hepatic microsomes,92.2%
same,decrease of CLint in the LC group compared to the CON group,[1]; hepatic microsomes,64.9%
same,increase of CLint in the LC-ISN group compared to the LC group,[1]; hepatic microsomes,163%
same,CLint in the LC group compared to the CON group and the LC-ISN group,[1]; small intestinal microsome,no statistically significant difference
same,AUC,"in vivo; rat, in vivo, iv, 10 mg/kg, AUC, tofacitinib 10 mg/kg intravenous, CON rats",7330 ng·h/mL
same,AUC,"in vivo; rat, in vivo, iv, 10 mg/kg, AUC, tofacitinib 10 mg/kg intravenous, LC rats",18900 ng·h/mL
same,clearance,in vivo; [2],24.1 ± 6.27 mL/min/kg
same,clearance,in vivo; [3],11 ± 2.06 mL/min/kg
same,clearance,in vivo; [4],13.8 ± 1.73 mL/min/kg
same,CL renal,in vivo; [2],3.73 ± 1.09 mL/min/kg
same,CL renal,in vivo; [3],4.65 ± 2.74 mL/min/kg
same,CL renal,in vivo; [4],4.1 ± 1.64 mL/min/kg
same,half-life,"in vivo; rat, in vivo, iv, 10 mg/kg, tofacitinib 10 mg/kg intravenous, CON (control) rats",35.4 ± 19.2 min
same,half-life,"in vivo; rat, in vivo, iv, 10 mg/kg, tofacitinib 10 mg/kg intravenous, LC rats (liver cirrhosis induced by DMN)",113 ± 43.7 min
same,Vd,in vivo; [2],0.429 ± 0.253 L/kg
same,Vd,in vivo; [3],0.798 ± 0.177 L/kg
same,Vd,in vivo; [4],0.8 ± 0.326 L/kg
same,AUC,"in vivo; rat, in vivo, po, 20 mg/kg, AUC, tofacitinib 20 mg/kg oral, CON rats",6400 ng·h/mL
same,AUC,"in vivo; rat, in vivo, po, 20 mg/kg, AUC, tofacitinib 20 mg/kg oral, LC rats",33800 ng·h/mL
same,AUC,"in vivo; rat, in vivo, po, 20 mg/kg, AUC, tofacitinib 20 mg/kg oral, LC-ISN 15 rats",20700 ng·h/mL
same,CL renal,in vivo; [5],6.98 ± 2.99 mL/min/kg
same,CL renal,in vivo; [6],5.71 ± 2.47 mL/min/kg
same,Cmax,in vivo; [5],3530 ± 1460 ng/mL
same,Cmax,in vivo; [7],9100 ± 1260 ng/mL
same,Cmax,in vivo; [6],6080 ± 1990 ng/mL
same,Tmax,in vivo; [5],50 min
same,Tmax,in vivo; [7],55.7 min
same,Tmax,in vivo; [6],85.7 min
same,increase of AUC in the LC group compared to the CON group,in vivo; [8],158%
same,reduction in nonrenal clearance (CLNR) in the LC group compared to the CON group,in vivo; [8],69.9%
same,reduction in total body clearance (CL) in the LC group compared to the CON group,in vivo; [8],54.4%
same,CLNR,in vivo; [9],21.1 ± 4.57 mL/min/kg
same,GI24 h,in vivo; [9],0.164 ± 0.102 % of dose
same,Ae0-24 h,in vivo; [9],13.9 ± 2.28 % of dose
same,CLNR,in vivo; [10],6.35 ± 1.27 mL/min/kg
same,GI24 h,in vivo; [10],2.07 ± 2.12 % of dose
same,Ae0-24 h,in vivo; [10],40.2 ± 18.9 % of dose
same,AUC,in vivo; [11],12300 ± 1780 ng·h/mL
same,CLNR,in vivo; [11],9.68 ± 2.40 mL/min/kg
same,GI24 h,in vivo; [11],0.166 ± 0.135 % of dose
same,Terminal half-life,"in vivo; tofacitinib 10 mg/kg intravenous, LC-ISN rats (LC treated with isosakuranetin 15 mg/kg)",58.2 ± 16.8 min
same,Ae0-24 h,in vivo; [11],30.1 ± 12.3 % of dose
same,reduction in AUC in the LC-ISN group compared to the LC group,in vivo; [8],35.1%
same,increase of AUC in the LC group compared to the CON group,in vivo; tofacitinib 20 mg/kg oral,429%
same,F,in vivo; [12],43.6%
same,GI24 h,in vivo; [12],0.106 ± 0.101 % of dose
same,Ae0-24 h,in vivo; [12],11.8 ± 4.08 % of dose
same,CLR,in vivo; [13],3.62 ± 1.78 mL/min/kg
same,F,in vivo; [13],89.5%
same,GI24 h,in vivo; [13],1.73 ± 2.04 % of dose
same,Ae0-24 h,in vivo; [13],35.8 ± 16.9 % of dose
same,F,in vivo; [14],84.1%
same,GI24 h,in vivo; [14],0.340 ± 0.288 % of dose
same,Ae0-24 h,in vivo; [14],35.9 ± 16.8 % of dose
same,reduction in AUC in the LC-ISN group compared to the LC group,in vivo; tofacitinib 20 mg/kg oral,38.9%
